Measurements as given in PubChem BioAssay (NCI).
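Results reflect a 48-hour exposure of cells in 96-well plates to compound at five concentrations. Abbreviation: GI50, concentration required for 50% inhibition of growth. TGI: total growth inhibition.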

Key:
Test in all cases: NCI tumour cell line growth inhibition, 48 h
[1] = tested on: EKVX NSCLC
[2] = tested on: HCT-15 colon
[3] = tested on: K-562 leukemia
[4] = tested on: SK-MEL-5 melanoma
[5] = tested on: HL-60(TB) leukemia
[6] = tested on: UACC-257 melanoma
[7] = tested on: NCI-H522 lung
[8] = tested on: DU-145 prostate
[9] = tested on: HS 578T breast
[10] = tested on: MCF7 breast

| SMILES | TGI [1] [µM] | TGI [2] [µM] | TGI [3] [µM] | TGI [4] [µM] | TGI [5] [µM] | TGI [6] [µM] | TGI [7] [µM] | GI50 [6] [µM] | GI50 [8] [µM] | TGI [8] [µM] | GI50 [2] [µM] | GI50 [3] [µM] | GI50 [4] [µM] | GI50 [9] [µM] | TGI [9] [µM] | GI50 [10] [µM] | TGI [10] [µM] | GI50 [5] [µM] | GI50 [7] [µM] | GI50 [1] [µM] |
| --- | --- | --- | --- | --- | --- | --- | --- | --- | --- | --- | --- | --- | --- | --- | --- | --- | --- | --- | --- | --- |
| Cn1c2c(c3ccccc31)C1CCCCC1C1C(=O)NC(=O)C21 (stereo unspecified) | > 100 | > 100 | > 100 | > 100 | 63.5 |  |  |  |  |  |  |  |  |  |  |  |  |  |  |  |
| N#CC(C(=O)/C(=N\Nc1nc(=S)[nH]n1N)C(C#N)c1ccc(Cl)cc1)c1ccc(Cl)cc1 (stereo unspecified) | > 100 | > 100 |  |  |  | > 100 |  |  |  |  |  |  |  |  |  |  |  |  |  |  |
| O=C(CC1(O)C(=O)Nc2ccccc21)c1ccccc1Cl (stereo unspecified) | > 100 | > 100 | > 100 | > 100 | > 100 | > 100 | > 100 |  |  |  |  |  |  |  |  |  |  |  |  |  |
| COc1cc(C(=O)/C=C/c2cc(C(=O)c3cc(OC)c(OC)c(OC)c3)ccc2OC)ccc1N |  | 2.12 | > 100 | 2.18 | 6.82 | 3.14 |  | 1.32 | 1.03 | 4.59 | 0.37 | 0.386 | 1.02 | 1.39 | > 100 | 0.322 | 2.28 | 1.48 |  |  |
| CC/C=C1\N=C(c2ccc(Cl)cc2)OC1=O | > 100 | > 100 | > 100 |  | > 100 | > 100 | > 100 |  |  |  |  |  |  |  |  |  |  |  |  |  |
| Cc1ccc(-c2nc(SCC(=O)O)n[nH]2)cc1 | > 100 | > 100 | > 100 | > 100 | > 100 | > 100 | > 100 |  |  |  |  |  |  |  |  |  |  |  |  |  |
| COc1cc(/C=C/c2cc(/C=C/c3ccc(O)c(OC)c3)n(-c3c(C)cccc3C)c(=O)n2)ccc1O | 6.73 | 4.61 | > 100 | 1.9 | 1.11 | 6.54 | 1.04 | 1.62 |  |  | 0.442 | 0.374 | 0.559 | 0.817 | > 100 |  |  | 0.271 | 0.264 | 1.86 |
| O=S(O)CCCCCSSCCCCSSCCCCCS(=O)O | > 100 | > 100 | > 100 | > 100 |  | > 100 | > 100 |  |  |  |  |  |  |  |  |  |  |  |  |  |
| O=C(CO)CC(=O)C(=O)Nc1nc([N+](=O)[O-])cs1 | > 100 | > 100 | > 100 | > 100 | > 100 | > 100 | > 100 |  |  |  |  |  |  |  |  |  |  |  |  |  |
| Cc1ccc(NC(=O)c2cccc([N+](=O)[O-])c2O)c([N+](=O)[O-])c1 | 48.4 | 31.8 | > 100 |  | > 100 | 33.4 | 29.5 |  |  |  |  |  |  |  |  |  |  |  |  |  |
| CN(C)c1ccc(C(=C2C=CC(=[N+](C)C)C=C2)c2ccc(N(C)C)cc2)cc1 (tested in a mixture with another compound) | 6.45 | 1.41 | 2.86 | 0.289 | 0.677 | 1.3 | 1.06 | 0.211 | 0.0543 | 1.28 | 0.294 | 0.047 | 0.133 | 0.0479 | 1.9 |  |  | 0.125 |  | 0.0725 |
| N/N=C1\C(=O)N(C2CCCCC2)C(=O)C1C(=O)NC1CCCCC1 (stereo unspecified) | > 100 | > 100 | > 100 | > 100 | 89.3 | > 100 | > 100 |  |  |  |  |  |  |  |  |  |  |  |  |  |
| CCCCCCCC/C=C/CCCCCCCCC1=NCCN1CCO |  | 7.58 |  | 19.9 | 6.35 | 25 | 25.9 | 11.8 | 7.28 | 19.6 | 2.42 |  | 5.84 | 2.37 | 7.68 | 1.77 | 4.02 | 2.45 | 6.34 |  |
| COc1ccc(-c2ccc(/C=N/n3c(COc4ccccc4Cl)nn(CN4CCN(C)CC4)c3=S)o2)c([N+](=O)[O-])c1 | 70.5 | 38.3 |  |  | 65.7 |  | > 100 |  |  |  | 17.4 |  |  | 38.7 | 81.4 | 12.9 | 33.8 | 32.8 | 29.5 | 21.5 |
| COC1=CC(O)(CC(N)=O)c2ccccc2C1=O (stereo unspecified) | > 100 | > 100 | > 100 | > 100 | > 100 | > 100 | > 100 |  |  |  |  |  |  |  |  |  |  |  |  |  |
| CCC(C)n1cc(C)c2c(C(=O)NCc3c(C)cc(C)[nH]c3=O)cc(Br)cc21 (stereo unspecified) |  | > 100 | > 100 | 29.1 | 58.4 | > 100 | > 100 | 32.8 | 76.8 | > 100 | 29 | 34.6 | 13.2 | 35 | > 100 | 29.4 | > 100 | 24.3 | 38 |  |
